Experimental data as given in patent publication US20220265845A1, “AMINOTHIOLESTER COMPOUNDS AND USES THEREOF” (ADVANCED BIODESIGN, priority 2019, published 2022).

Legend:
Format in all cases: biochemical
[1] = target: T1, Human recombinant ALDH3A1 (Homo sapiens, UniProt P30838); assay: Enzymatic assay with human recombinant ALDH3A1 (NADP+, 4-NBA), IC50; conditions: substrate 4-Nitrobenzaldehyde, 37° C.
T1 sequence (P30838 1-453): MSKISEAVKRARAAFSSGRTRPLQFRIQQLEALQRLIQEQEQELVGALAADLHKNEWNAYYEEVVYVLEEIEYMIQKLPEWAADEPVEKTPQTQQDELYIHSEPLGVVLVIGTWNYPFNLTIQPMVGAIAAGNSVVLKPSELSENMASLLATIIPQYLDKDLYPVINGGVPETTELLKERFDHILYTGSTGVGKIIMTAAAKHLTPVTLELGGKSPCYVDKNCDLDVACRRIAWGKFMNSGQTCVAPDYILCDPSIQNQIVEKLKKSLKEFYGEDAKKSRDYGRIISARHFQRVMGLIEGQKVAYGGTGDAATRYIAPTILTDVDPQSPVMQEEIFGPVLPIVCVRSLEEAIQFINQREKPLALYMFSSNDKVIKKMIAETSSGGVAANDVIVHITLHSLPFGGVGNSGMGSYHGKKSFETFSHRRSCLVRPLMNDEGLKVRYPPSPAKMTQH
Procedure: For ALDH3A1 (1 mg/mL), 10 μL of enzyme was added into a reaction buffer containing 50 mM Tris, 5 mM DTT, pH 8, plus 40 mM Nicotinamide adenine dinucleotide phosphate (oxidized form, NADP^+) and 4-Nitrobenzaldehyde (4-NBA) (Sigma-.Aldrich). Internal standards were prepared with Nicotinamide adenine dinucleotide phosphate reduced form (NADPH, 5 μM, Sigma-Aldrich) in Reaction Buffer (50 mM Tris, 5 mM DTT, pH 8).
Time-dependent inhibition assays were performed for 0-2-5-10-15-20-30-45-60 min at 37° C. in 1 mL-quartz cuvette. The formation of NADH was monitored, reading samples at excitation wavelength=340 nm/emission wavelength=460 nm (fluorescence) for at least 600 sec using Cary Eclipse Varian fluorimeter.
Negative control consisted in the same reactions except that enzyme was not added (enzyme blank). To determine the slope for enzyme blank and calculate product concentration (Unit of fluorescence) the following formulae was used: […]
where Cst is the standard NADH concentration, Fst is the standard fluorescence and dF/dt is the slope of the time dependent fluorescence (S. Sotobodowska et al, 2012). The specific activity of the enzymes (μmol/min·mg-U/mg) in the absence of presence of inhibitors was calculated as follows: […]

[2] = target: T2, Human recombinant ALDH1A1 (Homo sapiens, UniProt P00352); assay: Kinetic parameters and inhibition type from Kobs versus inhibitor concentration plots; conditions: for kinact/KI: from Kobs versus [I] plots
T2 construct: purchased Creative BioMart, NY, USA
T2 sequence (P00352 1-501): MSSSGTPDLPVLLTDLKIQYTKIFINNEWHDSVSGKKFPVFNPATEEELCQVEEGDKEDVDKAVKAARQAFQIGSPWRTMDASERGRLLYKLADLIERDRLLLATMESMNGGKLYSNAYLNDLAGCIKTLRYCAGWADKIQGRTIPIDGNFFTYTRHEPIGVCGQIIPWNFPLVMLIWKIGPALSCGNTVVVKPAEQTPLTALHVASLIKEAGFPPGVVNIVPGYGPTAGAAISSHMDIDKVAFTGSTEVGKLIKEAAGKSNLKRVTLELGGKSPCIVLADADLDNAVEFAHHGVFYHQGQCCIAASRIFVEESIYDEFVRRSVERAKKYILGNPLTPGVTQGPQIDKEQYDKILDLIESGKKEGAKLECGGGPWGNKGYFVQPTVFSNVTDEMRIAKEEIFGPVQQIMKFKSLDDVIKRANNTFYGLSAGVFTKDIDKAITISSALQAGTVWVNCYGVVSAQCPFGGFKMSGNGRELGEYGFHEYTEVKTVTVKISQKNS
Procedure: (§1) The kinetic data are expressed as the mean±standard error from three independent determination. Kinact/Ki was determined from Kobs versus concentration of the inhibitor [I] plots. […] The Kobs were obtained from negative exponential fit using non-linear regression program GraFit 5.0 (Erithacus software).
(§2) To determine the inhibition mechanisms of the tested compounds for each isoenzyme, the corresponding Kobs were calculated as mentioned above, plotting product concentration vs time incubation of the enzymes with the test compounds at 300 μM, 200 μM, 100 μM, 50 μM, 20 μM and 10 μM. The kobs were obtained for each concentration of inhibitor tested, from the negative exponential fit using non-linear regression program GraFit 5.0 (Erithacus software). Finally, the kinetic parameter of kinact/KI was determined from the plot of kobs versus the corresponding concentration of inhibitor. The slope of the linear fit of data indicated the rate constant in μM^−1·min^−1.

Human recombinant ALDH2 = target: T3, Human recombinant ALDH2 (Homo sapiens, UniProt P05091); assay: as above; conditions: from Kobs versus [I] plots
T3 construct: purchased Creative BioMart, NY, USA
T3 sequence (P05091 18-517): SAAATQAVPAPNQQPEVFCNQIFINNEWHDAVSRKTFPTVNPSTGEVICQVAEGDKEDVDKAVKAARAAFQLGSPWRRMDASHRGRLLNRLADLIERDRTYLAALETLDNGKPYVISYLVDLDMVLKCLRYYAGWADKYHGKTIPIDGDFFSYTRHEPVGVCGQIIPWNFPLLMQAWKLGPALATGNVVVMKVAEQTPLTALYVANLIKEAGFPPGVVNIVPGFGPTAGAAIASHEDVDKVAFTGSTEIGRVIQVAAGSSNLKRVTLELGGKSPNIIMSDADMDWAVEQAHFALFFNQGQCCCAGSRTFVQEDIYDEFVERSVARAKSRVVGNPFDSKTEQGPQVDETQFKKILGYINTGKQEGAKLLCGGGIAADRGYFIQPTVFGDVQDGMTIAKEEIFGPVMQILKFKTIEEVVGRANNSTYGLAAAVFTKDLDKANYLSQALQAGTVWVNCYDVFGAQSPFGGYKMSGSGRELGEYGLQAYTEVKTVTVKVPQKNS
Procedure: as §1, §2

[3] = target: T4, Human recombinant ALDH1A3 (Homo sapiens, UniProt P47895); assay: as above; conditions: for kinact/KI: from Kobs versus [I] plots; for Specificity of interaction with ALDH1A3: compared with DIMATE
T4 construct: purchased Creative BioMart, NY, USA
T4 sequence (P47895 1-512): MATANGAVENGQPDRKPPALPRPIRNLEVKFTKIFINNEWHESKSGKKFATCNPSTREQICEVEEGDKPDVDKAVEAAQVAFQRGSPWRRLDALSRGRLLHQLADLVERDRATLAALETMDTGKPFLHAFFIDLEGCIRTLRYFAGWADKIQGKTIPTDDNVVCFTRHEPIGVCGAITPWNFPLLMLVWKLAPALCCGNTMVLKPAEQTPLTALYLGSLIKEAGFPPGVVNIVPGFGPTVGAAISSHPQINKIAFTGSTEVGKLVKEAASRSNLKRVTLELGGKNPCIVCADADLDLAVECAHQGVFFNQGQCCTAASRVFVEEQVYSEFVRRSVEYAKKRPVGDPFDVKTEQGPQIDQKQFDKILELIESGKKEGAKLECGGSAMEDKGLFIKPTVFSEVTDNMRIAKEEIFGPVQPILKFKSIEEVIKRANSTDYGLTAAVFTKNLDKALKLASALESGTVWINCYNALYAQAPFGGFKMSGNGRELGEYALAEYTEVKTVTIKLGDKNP
Procedure: as §1, §2

IC50 [1]	ALDH1A1 Inhibition Type [2]	kinact/KI [2]	kinact/KI (Human recombinant ALDH2)	ALDH1A3 Inhibition Type [3]	kinact/KI [3]	Specificity of interaction with ALDH1A3 [3]	Structure (SMILES)
303 ± 46 µM	specific	15 M⁻¹ s⁻¹	7.08 M⁻¹ s⁻¹	non-specific affinity label	28.3 M⁻¹ s⁻¹		CSC(=O)C#CC(C)(C)N(C)C [DIMATE, S-methyl 4-(dimethylamino)-4-methylpent-2-ynethioate, reference compound]
242 ± 11 µM		8.33 M⁻¹ s⁻¹	9 M⁻¹ s⁻¹	specific	642 M⁻¹ s⁻¹	higher specificity	CSC(=O)C#CC(C)(C)N(C)CCOCc1ccccc1 [Example 3, S-methyl 4-[2-benzyloxyethyl(methyl)amino]-4-methyl-pent-2-ynethioate]
143 ± 2 µM		61.7 M⁻¹ s⁻¹	40.8 M⁻¹ s⁻¹	specific	197 M⁻¹ s⁻¹	higher specificity	CSC(=O)C#CC(C)(C)N(C)CCOCc1ccc(C)c(C)c1 [Example 5, S-methyl 4-[2-[(3,4-dimethylphenyl)methoxy]ethyl-methyl-amino]-4-methyl-pent-2-ynethioate]
